Measurements from patent publication US11883407B2, “Medicament for the treatment of chronic cough” (Shionogi & Co., Ltd., priority 2018, dated 2024).
Read-outs that look alike come from different tables or passages of the source.

Legend:
[1] = test system: nerve fibers of the ganglion inferius; conditions: guinea pig lung tissue; cited from earlier work
[2] = human, in vivo; cited from earlier work
[3] = cited from earlier work
[4] = test system: pulmonary vagal afferent C and A fibers; conditions: cited from earlier work
[5] = Study MK-7264-012 (NCT02612610) of Gefapixant: taste-related adverse events; assay type: in vivo, human; conditions: 50 mg; difference between treatment groups
Procedure: In addition, a large number of clinical trial protocols for AF-219 (MK-7264, Gefapixant) and their results are recorded on ClinicalTrials.gov. For example, the results of a trial in which 253 of the 367 candidate patients were randomly assigned to a twice daily oral administration group of a placebo, 7.5 mg, 20 mg or 50 mg of AF-219 to confirm the therapeutic effect after 12 weeks, have been published under the identification number NCT02612610. Among the trial results, it was published that as one of the adverse events, for example, dysgeusia was confirmed in each dose group: 9.52% (7.5 mg administration group, 6 out of 63 cases), 33.33% (20 mg administration group, 21 out of 63 cases) and 47.62% (50 mg administration group, 30 out of 63 cases). […]
Based on the above results, for the proportion of subjects who experienced any of the taste-related adverse events, the study design of each study was taken into account, and as the difference between each investigational drug and placebo, the mean of differences of incidence in the same subject between the treatments and the two-sided 95% confidence interval thereof were calculated for Test Example 6, and the difference of incidence between the Gefapixant 50 mg treatment group and the placebo treatment group and the two-sided 95% confidence interval thereof were calculated for the study MK-7264-012.

[6] = test system: patients with chronic cough; conditions: cited from earlier work
[7] = cited from earlier work; for dysgeusia as adverse event: 12 weeks
[8] = 50 mg twice daily, 63 subjects in safety analysis

COc1cc(C(C)C)c(Oc2cnc(N)nc2N)cc1I [AF-353]
action potential in nerve fibers of the ganglion inferius evoked by ATP or αβ-methylene ATP [1]: almost completely suppressed

Cc1cnc(-c2cc(O[C@@H]3CCOC3)cc(C(=O)N[C@H](C)c3cnc(C(F)(F)F)nc3)c2)s1 [BAY-1817080]
number of coughs per 24 hours [2]: a reduction in the number of coughs per 24 hours was confirmed

CNC(=O)c1cc(F)c(-c2nc3cc(C)ccn3c2C[C@H]2CN(C(=O)OC)CCO2)c(F)c1 [BLU-5937]
taste changes, subjects ([3]; 100 mg (n=16)): 6.3% | partial taste loss, subjects ([3]; 400 mg (n=16)): 6.25% | taste changes, subjects ([3]; 400 mg (n=16)): 37.5% | partial taste loss, subjects ([3]; 800 mg (n=8)): 12.5% | taste changes, subjects ([3]; 800 mg (n=8)): 62.5% | taste changes, subjects ([3]; 1200 mg (n=8)): 25% | course of taste-related adverse events ([3]; single and repeated administration): all taste-related adverse events were transient and sporadic

O=C(O)c1cc(C(=O)O)c(C(=O)N(Cc2cccc(Oc3ccccc3)c2)[C@H]2CCCc3ccccc32)cc1C(=O)O [Compound A-317491, (5-({3-phenoxybenzyl)[(1S)-1,2,3,4-tetrahydro-1-naphthalenyl]amino}carbonyl)-1,2,4-benzenetricarboxylic acid]
activity of pulmonary vagal afferent C and A fibers by α,βmATP [4]: inhibits activity of the pulmonary vagal afferent C and A fibers

COc1cc(C(C)C)c(Oc2cnc(N)nc2N)cc1S(N)(=O)=O [Gefapixant]
Difference of incidence of any of the taste-related adverse events (drug − placebo) [5]: 74.6% | hypogeusia as adverse event ([6]; 13 out of 24 cases): 54% | dysgeusia as adverse event ([6]; 21 out of 24 cases): 88% | participants who discontinued the trial due to a taste disturbance (hypogeusia or dysgeusia) ([6]; human, in vivo): 6 | taste-related disorder ([6]; patients administered with AF-219): all patients developed some kind of taste-related disorder | reduction of the frequency of daytime cough compared to the placebo group ([6]; patients with chronic cough): 75% | dysgeusia as adverse event ([7]; 7.5 mg twice daily, 6 out of 63 cases): 9.52% | dysgeusia as adverse event ([7]; 20 mg twice daily, 21 out of 63 cases): 33.33% | dysgeusia as adverse event ([7]; 50 mg twice daily, 30 out of 63 cases): 47.62% | Ageusia, number of subjects and incidence [7, 8]: 13 (20.6%) | Any of taste-related adverse events, number of subjects and incidence [7, 8]: 51 (81.0%) | Dysgeusia, number of subjects and incidence [7, 8]: 30 (47.6%) | Hypogeusia, number of subjects and incidence [7, 8]: 15 (23.8%)

TNP-ATP
action potential in nerve fibers of the ganglion inferius evoked by ATP or αβ-methylene ATP [1]: almost completely suppressed
